Measurements published in PMC13237142, “Proteome-wide quantification of inositol pyrophosphate-protein interactions” (Nature Communications, 2026).

Tests used:
[1] = molecular target: T1, PMVK (Homo sapiens, UniProt Q15126); experiment: Isothermal titration calorimetry with recombinant PMVK; assay type: binding; conditions: ITC, 25 °C, 50 μM protein, 500 μM ligand, buffer pH 7.4 with 1 mM MgCl2; triplicate
T1 construct: 6xHis (N, cleaved yes); V5 (N, cleaved yes); made in house; host or cells: E. coli BL21 (DE3)
T1 sequence (Q15126 1-192): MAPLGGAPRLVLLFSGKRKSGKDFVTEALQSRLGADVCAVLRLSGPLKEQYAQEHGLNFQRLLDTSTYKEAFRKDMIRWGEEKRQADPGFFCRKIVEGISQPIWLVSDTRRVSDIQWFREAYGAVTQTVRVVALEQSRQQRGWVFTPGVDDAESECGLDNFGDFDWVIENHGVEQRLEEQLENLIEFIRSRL
Procedure: Protein stocks were subjected to buffer exchange using final buffer conditions: 25 mM HEPES, pH 7.4, 150 mM KCl, 1 mM MgCl2, 40 mM NaCl, 0.5 mM TCEP (ITC buffer). The exact protein concentration was determined by BCA assay and adjusted to 50 μM. […] ITC experiments were carried out at 25 °C in a MicroCal PEAQ-ITC calorimeter (Malvern Panalytical GmbH, Kassel, Germany), with ca. 50 μM protein in the cell and 500 μM ligand in the syringe. InsPs were titrated into the solution in nineteen 2 μL-steps. Spacing between injections was 150 s. The corresponding instrument software (MicroCal PEAQ-ITC Analysis) was used for baseline correction, peak integration, data fitting and determination of binding parameters. All experiments were carried out in triplicate.

[2] = in the presence of Mg^2+ ions; cited from earlier work
[3] = test system: XPR1; conditions: compared with InsP6 and 5PP-InsP5; cited from earlier work
[4] = molecular target: T2, PDAP1 (Homo sapiens, UniProt Q13442); experiment: KDapp by affinity enrichment/TMT-MS; assay type: binding; conditions: Mg^2+(cyto) HEK293T lysate; read-out: KD^app
T2 construct: endogenous in cells; host or cells: HEK293T cytosolic fraction
T2 sequence (Q13442 1-181): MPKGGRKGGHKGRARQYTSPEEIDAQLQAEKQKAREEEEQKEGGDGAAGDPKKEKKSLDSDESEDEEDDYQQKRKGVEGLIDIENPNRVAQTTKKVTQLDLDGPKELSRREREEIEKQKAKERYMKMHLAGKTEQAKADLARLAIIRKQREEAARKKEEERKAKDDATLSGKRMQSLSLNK
Procedure: (§1) Cells were lysed using two different lysis buffers (containing either 1 mM EDTA or containing 1 mM Mg^2+), and the lysates were separated into nuclear and cytosolic fractions to provide deeper proteome coverage (Supplementary Fig. 8). […] Following quick washing steps, the retained proteins were eluted with an excess of the corresponding free ligand. The samples were digested with trypsin, followed by 11-plex TMT isobaric labeling, subsequent sample pooling, and LC-MS/MS analysis. To ensure robustness of the datasets, the experiments were performed in biological triplicates, and only proteins fully quantified in at least two replicates were further analyzed. […] In addition, model validity was assessed by an F-test comparing the Hill-like fit to a null model, and only proteins with statistically significant fits (p ≤ 0.05) were considered. Furthermore, a cutoff of log2 fold-change ≥ 1 between the endpoints was applied (Supplementary Data 1).
(§2) Cells were washed twice with ice-cold 0.9 mM NaCl in H2O (10 mL), carefully scraped off, added to protein low-binding microcentrifuge tubes, and ice-cold PBS (1 mL) was added. The cells were pelleted for 2 min, 250 g at 4 °C, and the supernatant was removed. The pellet was washed twice with ice-cold PBS (1 mL), the supernatant was removed, and the pellet was kept on ice. […]

[5] = molecular target: T3, MMTAG2 (Homo sapiens, UniProt Q9BU76); experiment: KDapp by affinity enrichment/TMT-MS; assay type: binding; conditions: Mg^2+nucl HEK293T lysate; read-out: KD^app
T3 construct: endogenous in cells; host or cells: HEK293T nuclear fraction (Mg2+)
Procedure: as §1, §2

[6] = molecular target: T4, PPIP5K2 (Homo sapiens, UniProt O43314); experiment: KDapp by affinity enrichment/TMT-MS; assay type: binding; conditions: in the presence of Mg^2+ ions, cytosolic dataset
T4 construct: endogenous in cells; host or cells: HEK293T cytosolic fraction (Mg2+)
T4 sequence (O43314 1-1243): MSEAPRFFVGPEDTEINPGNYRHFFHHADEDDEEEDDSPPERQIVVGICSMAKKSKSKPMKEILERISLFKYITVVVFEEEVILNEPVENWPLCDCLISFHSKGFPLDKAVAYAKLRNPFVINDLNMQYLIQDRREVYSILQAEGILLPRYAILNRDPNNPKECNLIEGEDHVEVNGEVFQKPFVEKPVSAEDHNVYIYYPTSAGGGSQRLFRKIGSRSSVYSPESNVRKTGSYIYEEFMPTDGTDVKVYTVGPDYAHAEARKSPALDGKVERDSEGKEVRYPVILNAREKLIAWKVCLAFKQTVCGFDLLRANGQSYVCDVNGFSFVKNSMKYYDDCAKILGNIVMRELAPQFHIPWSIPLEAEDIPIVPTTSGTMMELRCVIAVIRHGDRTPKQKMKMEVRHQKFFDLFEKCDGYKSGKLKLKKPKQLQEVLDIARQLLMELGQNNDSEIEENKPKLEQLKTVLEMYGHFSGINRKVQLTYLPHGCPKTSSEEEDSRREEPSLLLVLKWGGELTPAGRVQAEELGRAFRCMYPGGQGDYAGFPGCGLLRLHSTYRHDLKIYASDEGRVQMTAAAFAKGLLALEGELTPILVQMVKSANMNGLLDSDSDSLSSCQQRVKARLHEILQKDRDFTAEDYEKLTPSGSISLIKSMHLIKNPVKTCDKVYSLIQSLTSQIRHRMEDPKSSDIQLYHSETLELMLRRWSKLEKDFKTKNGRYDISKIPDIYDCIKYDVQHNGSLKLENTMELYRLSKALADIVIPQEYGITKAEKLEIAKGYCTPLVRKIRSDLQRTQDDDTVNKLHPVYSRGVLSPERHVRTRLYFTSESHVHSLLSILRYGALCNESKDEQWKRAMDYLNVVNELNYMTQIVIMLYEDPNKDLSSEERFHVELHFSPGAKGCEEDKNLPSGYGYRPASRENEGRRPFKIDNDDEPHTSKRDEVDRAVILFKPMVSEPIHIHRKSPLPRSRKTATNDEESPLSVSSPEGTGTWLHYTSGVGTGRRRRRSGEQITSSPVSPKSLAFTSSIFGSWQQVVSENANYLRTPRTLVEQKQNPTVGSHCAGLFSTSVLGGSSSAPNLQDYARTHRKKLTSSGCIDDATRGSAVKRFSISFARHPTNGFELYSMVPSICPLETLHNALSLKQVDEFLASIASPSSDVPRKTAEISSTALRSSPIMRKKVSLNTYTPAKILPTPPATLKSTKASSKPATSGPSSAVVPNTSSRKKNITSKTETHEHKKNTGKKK
Procedure: as §1, §2

[7] = molecular target: T5, POLR2I (Homo sapiens, UniProt P36954); experiment: KDapp by affinity enrichment/TMT-MS; conditions: binding curve, Supplementary Fig. 9
T5 construct: endogenous in cells; host or cells: HEK293T lysate fraction

[8] = test system: proteins of HEK293T cell lysates (cytosolic/nuclear, EDTA/Mg2+); experiment: Proteome-wide KDapp, all four lysate preparations together; assay type: binding, human; conditions: Mg^2+ ions present; read-out: KD^app values of the top 50 proteins

T3 sequence (Q9BU76 whole entry): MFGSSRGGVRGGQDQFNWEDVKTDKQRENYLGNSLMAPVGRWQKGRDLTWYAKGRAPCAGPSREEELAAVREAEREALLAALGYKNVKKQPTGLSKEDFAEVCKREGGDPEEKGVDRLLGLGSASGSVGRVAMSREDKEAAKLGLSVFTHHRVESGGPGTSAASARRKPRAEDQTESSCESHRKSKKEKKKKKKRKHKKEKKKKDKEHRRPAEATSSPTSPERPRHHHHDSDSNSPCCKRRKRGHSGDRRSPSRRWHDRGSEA

O=P(O)(O)O[C@H]1[C@@H](OP(=O)(O)O)[C@H](OP(=O)(O)O)[C@@H](OP(=O)(O)OP(=O)(O)O)[C@H](OP(=O)(O)O)[C@H]1OP(=O)(O)O [5PP-InsP5, 5-diphosphoinositol pentakisphosphate]
Kd [1]: 9500 ± 1000 nM

O=P(O)(O)O[C@@H]1[C@@H](OP(=O)(O)O)[C@H](OP(=O)(O)OP(=O)(O)O)[C@@H](OP(=O)(O)O)[C@H](OP(=O)(O)OP(=O)(O)O)[C@@H]1OP(=O)(O)O [1,5(PP)2-InsP4, bis-1,5-diphosphoinositol tetrakisphosphate]
fraction adopting the flipped conformation [2]: ~30%
in vitro binding affinity to XPR1 [3]: highest

O=C(CCCC[C@@H]1SC[C@@H]2NC(=O)N[C@@H]21)NCCOCCOCCOCCOCCOP(=O)(O)O[C@@H]1[C@@H](OP(=O)(O)O)[C@H](OP(=O)(O)CP(=O)(O)O)[C@@H](OP(=O)(O)O)[C@H](OP(=O)(O)CP(=O)(O)O)[C@@H]1OP(=O)(O)O [b-1,5(PCP)2-InsP4]
Kd [4]: 600 nM
Kd [5]: 1900 nM
binding to PPIP5K2 (binding curves) [6]: tight binding
binding to POLR2I [7]: strong binding
Kd [8]: < 1000 nM

O=P(O)(O)O[C@H]1[C@H](OP(=O)(O)O)[C@@H](OP(=O)(O)O)[C@H](OP(=O)(O)O)[C@@H](OP(=O)(O)O)[C@H]1OP(=O)(O)O [InsP6, inositol hexakisphosphate]
Kd [1]: 4000 ± 300 nM
